Assay results reported in patent US9278962B2 (Cytokinetics, Inc., priority 2011, dated 2016).

The compounds below were run on rabbit skeletal myofibrils (approximately 90% fast fibers) (assay: Activation of fast skeletal myofibrils (PUMA coupled-enzyme ATPase assay, AC1.4)). Details: Table 2; concentration at which the compound increased enzymatic activity by 40%; calcium at pCa25.
Type: biochemical
Description: Rabbit skeletal myofibrils were prepared based upon the method of Herrmann et al. (Biochem. 32(28):7255-7263(1993). Myofibrils were prepared from rabbit psoas muscle purchased from Pel-Freez Biologicals (Arkansas) within 2 days of ordering, stored on ice. Minced muscle was homogenized in 10 volumes of ice-cold “standard” buffer (50 mM Tris, pH 7.4, 0.1 M potassium acetate, 5 mM KCl, 2 mM DTT, 0.2 mM PMSF, 10 μM leupeptin, 5 μM pepstatin, and 0.5 mM sodium azide) containing 5 mM EDTA and 0.5% Triton X-100 using an Omni-Macro homogenizer. Myofibrils were recovered by low speed centrifugation (3000 rpm for 10 minutes) and washed 2 times in the Triton X-100 containing buffer to ensure removal of cellular membrane. Following the Triton washes, myofibrils were washed 3 times in “standard” buffer containing 2 mM magnesium acetate. A final wash in assay buffer (12 mM PIPES, pH 6.8, 60 mM KCl, 1 mM DTT) was performed and brought to 10% sucrose for flash freezing in liquid nitrogen and storage at −80° C.
Fast fiber activators were identified by measuring the enzymatic activity of muscle myofibril preparations using the proprietary PUMA™ (see, e.g., U.S. Pat. Nos. 6,410,254, 6,743,599, 7,202,051, and 7,378,254) assay system. Myofibril preparations consisted of rabbit skeletal muscle (approximately 90% fast fibers) that had been mechanically homogenized and washed with a detergent (triton X-100) to remove cellular membranes. This preparation retained all of the sarcomeric components in a native conformation and the enzymatic activity was still regulated by calcium. Compounds were tested using a myofibril suspension and a level of calcium sufficient to increase enzymatic activity of the myofibrils to 25% of their maximal rate (termed pCa25). Enzymatic activity was tracked via a pyruvate kinase and lactate dehydrogenase-coupled enzyme system. This assay regenerates myosin-produced ADP into ATP by oxidizing NADH, producing an absorbance change at 340 nm. The buffering system was 12 mM Pipes, 2 mM MgCl2, 1 mM DTT at pH 6.8 (PM12 buffer).
Using procedures similar to those described herein, utilizing reagents and intermediates commercially available (e.g., Sigma-Aldrich) or readily synthesized by one of skill in the art, the compounds in Table 2, Table 3, Table 4 and Table 5 were synthesized, characterized and tested. AC1.4 values were determined according to the procedure described in Example 6, and the reported median AC1.4 values are as follows: A=<1 uM; B=1-10 uM; C=10-20 uM; D=>20 uM.

| Compound | Mean AC1.4 |
| --- | --- |
| CC(C)(CNc1nc(CCCNC(=O)CN)ns1)c1ccc(F)cc1 [2-amino-N-[3-(5-{[2-(4-fluorophenyl)-2-methylpropyl]amino}(1,2,4-thiadiazol-3-yl))propyl]acetamide] | B (B=1-10 uM) |
| CC(C)(CNc1nc(CNC(=O)CN)ns1)c1ccc(F)cc1 [2-amino-N-[(5-{[2-(4-fluorophenyl)-2-methylpropyl]amino}(1,2,4-thiadiazol-3-yl))methyl]acetamide] | C (C=10-20 uM) |
| CC(C)(CNc1nc(-c2ccc(C(N)=O)c(F)c2)ns1)c1ccc(F)cc1 [2-fluoro-4-(5-{[2-(4-fluorophenyl)-2-methylpropyl]amino}(1,2,4-thiadiazol-3-yl))benzamide] | A (A=<1 uM) |
| CC(C)(CNc1nc(-c2ccc(C#N)c(F)c2)ns1)c1ccc(F)cc1 [2-fluoro-4-(5-{[2-(4-fluorophenyl)-2-methylpropyl]amino}(1,2,4-thiadiazol-3-yl))benzenecarbonitrile] | B (B=1-10 uM) |

Same assay, conditions: Table 4; concentration at which the compound increased enzymatic activity by 40%; calcium at pCa25

| Compound | Mean AC1.4 |
| --- | --- |
| COc1cccnc1C1(CNc2nc3ccc(C(N)=O)cc3s2)CCC1 [2-((1-(3-methoxypyridin-2-yl)cyclobutyl)methylamino)benzo[d] thiazole-6-carboxamide] | B (B=1-10 uM) |
| N#Cc1ccc2nc(NCC3(c4ccc(F)cc4)CCC3)sc2c1 [2-((1-(4-fluorophenyl)cyclobutyl)methylamino) benzo[d]thiazole-6-carbonitrile] | A (A=<1 uM) |
| NC(=O)c1ccc2nc(NCC3(c4ccc(F)cc4)CCC3)sc2c1 [2-((1-(4-fluorophenyl)cyclobutyl)methylamino) benzo[d]thiazole-6-carboxamide] | A (A=<1 uM) |
| COc1ccc(C2(CNc3nc4ccc(C#N)cc4s3)CCC2)nc1 [2-((1-(5-methoxypyridin-2-yl)cyclobutyl)methylamino)benzo[d] thiazole-6-carbonitrile] | D (D=>20 uM) |
| COc1ccc(C2(CNc3nc4ccc(C(N)=O)cc4s3)CCC2)nc1 [2-((1-(5-methoxypyridin-2-yl)cyclobutyl)methylamino)benzo[d] thiazole-6-carboxamide] | C (C=10-20 uM) |
| COc1cccc(C2(CNc3nc4ccc(C#N)cc4s3)CCC2)n1 [2-((1-(6-methoxypyridin-2-yl)cyclobutyl)methylamino)benzo[d] thiazole-6-carbonitrile] | B (B=1-10 uM) |
| COc1cccc(C2(CNc3nc4ccc(C(N)=O)cc4s3)CCC2)n1 [2-((1-(6-methoxypyridin-2-yl)cyclobutyl)methylamino)benzo[d] thiazole-6-carboxamide] | B (B=1-10 uM) |
| N#Cc1ccc2nc(NCC3(c4ccccn4)CCC3)sc2c1 [2-((1-(pyridin-2-yl)cyclobutyl)methylamino)benzo[d] thiazole-6-carbonitrile] | C (C=10-20 uM) |
| NC(=O)c1ccc2nc(NCC3(c4ccccn4)CCC3)sc2c1 [2-((1-(pyridin-2-yl)cyclobutyl)methylamino)benzo[d] thiazole-6-carboxamide] | B (B=1-10 uM) |
| N#Cc1ccc2sc(NC[C@]3(c4ncccc4F)C[C@H](F)C3)nc2c1 [2-((3-fluoro-1-(3-fluoropyridin-2-yl)cyclobutyl)methylamino)benzo[d] thiazole-5-carbonitrile] | C (C=10-20 uM) |
| NC(=O)c1ccc2sc(NC[C@]3(c4ncccc4F)C[C@H](F)C3)nc2c1 [2-((3-fluoro-1-(3-fluoropyridin-2-yl)cyclobutyl)methylamino)benzo[d] thiazole-5-carboxamide] | C (C=10-20 uM) |
| NC(=O)c1cccc2nc(NC[C@]3(c4ncccc4F)C[C@H](F)C3)sc12 [2-((3-fluoro-1-(3-fluoropyridin-2-yl)cyclobutyl)methylamino)benzo[d] thiazole-7-carboxamide] | D (D=>20 uM) |
| N#Cc1ccc2nc(N)sc2c1 [2-aminobenzo[d]thiazole-6-carbonitrile] | D (D=>20 uM) |
